In PubChem BioAssay (NCI) one finds TGI and GI50 data, which are given here for 19 molecules.

Each structure is given as a SMILES string.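 Grown in 96-well plates, cells were treated for 48 hours with each compound at five concentrations. Insufficient inhibition: endpoint recorded as highest concentration tested. The concentration for 50% growth inhibition is given as GI50. Definition used: TGI = concentration required for complete inhibition of growth.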 Some results are limits rather than exact numbers.

Common to all, as to assay: NCI-60 cell line screen, 48 h
In test [1] the test system is HCT-116 colon.
For test [2], the system named is HOP-18 NSCLC.
Test [3] deals with PC-3 prostate.
The subject of test [4] is RPMI-8226 leukemia.
Test [5] concerns SF-295 CNS.
For test [6], the system named is SNB-19 CNS.
Test [7] deals with SNB-75 CNS.
The subject of test [8] is T-47D breast.
Test [9] relates to UACC-257 melanoma.
The subject of test [10] is UO-31 renal.

Consider `CN(Cc1cnc2nc(N)nc(N)c2n1)c1ccc(C(=O)NC(CCC(=O)O)C(=O)O)c2ccccc12` (stereo not drawn), for which the TGI in [1], in [3], in test [4], in test [5], in test [6] and in [8] was over 1000 µM throughout. Moreover, in [10], the TGI was over 1000 µM. Further, the GI50 in test [2] was 0.0452 µM; in test [3], 89.8 µM; in test [6], under 0.0174 µM; in [7], over 85.6 µM; in test [9], under 0.0363 µM.

For `COCOC1CCCC[C@@]1(OCCOCCO[C@@]1(c2ccccc2)CCCC[C@H]1OCOC)c1ccccc1` (stereo partly drawn), the TGI in test [1] was over 100 µM; in test [2] it was over 100 µM; in [4], over 100 µM; in test [5], over 100 µM; in [6], over 100 µM; in test [7] it was 84.3 µM. The TGI in test [9] and in test [10] was over 100 µM each time.

Turning to `COc1ccc(/C(C=O)=C(\Cl)c2ccc(OC)c(OC)c2)cc1`, the TGI in [1] is over 100 µM; in test [2] it was over 100 µM; in [4], over 100 µM; in test [5] it was over 100 µM; in [6] it was over 100 µM; in [7] it was 60.7 µM. For the same molecule, the TGI in test [9] and in [10] was over 100 µM in each case.

For the molecule `NC1CCC2(O)c3ccccc3C2C1` (stereo not drawn), the TGI in [1], in test [2], in test [4], in [5], in test [6] and in test [7] was over 100 µM each time. The TGI in [9] and in test [10] was over 100 µM in each case.

Consider `C[C@H]1CCC/C=C/[C@@H]2C[C@H](OC3OC(CO)C(O)C(O)C3O)C[C@H]2[C@H](O)/C=C/C(=O)O1` (stereo partly drawn), for which the TGI in test [1], in [3], in [4], in [5], in test [6] and in test [7] was over 100 µM each time. The values for the TGI in test [8], in test [9] and in [10] were over 100 µM, 78.9 µM and over 100 µM, respectively.

For `O=C1/C(=C\c2cccc(Oc3ccccc3)c2)SC(c2ccccc2)N1c1cc(Cl)ccc1Cl` (stereo not drawn), the TGI is 52.7 µM in [1]; over 100 µM in [3]; 98.7 µM in test [4]; over 100 µM in [5]; over 100 µM in test [6]; over 100 µM in [7]. Further, the TGI in test [8], in [9] and in [10] was over 100 µM in each case.

Regarding `COc1c(OC2OC(CO)C(O)C(O)C2O)cc2c(c1OC)-c1ccc(OC)c(=O)cc1C(NC(C)=O)CC2` (stereo not drawn), the TGI in [1] was over 100 µM; in test [2] it was over 100 µM; in test [4], over 100 µM; in [5], over 100 µM; in test [6], over 100 µM; in test [7], over 84.4 µM. Further, the TGI in test [9] and in test [10] was over 100 µM each time.

In the case of `O=c1[nH]c2c(Nc3c4ccccc4nc4ccccc34)c([N+](=O)[O-])c(Nc3c4ccccc4nc4ccccc34)c([N+](=O)[O-])c2[nH]1`, the TGI in test [1] was determined as 8.45 µM; in test [3], 5.97 µM; in [4] it was 8.27 µM; in test [5] it was 12.8 µM; in [6] it was 13.7 µM; in [7], 7.79 µM. The TGI is over 39.1 µM in test [8], 10.4 µM in test [9] and 2.76 µM in test [10].

Regarding `CC1(C)C(=O)/C(=C/c2ccccc2)C(C)(C)C1(C)C`, the TGI in test [1], in test [3], in test [4], in [5], in [6] and in [7] was over 100 µM throughout. Moreover, the TGI in test [8], in test [9] and in test [10] was over 100 µM in each case.

Turning to `O=C(/C=C\c1ccccc1)Oc1ccc(/C=C2\CCC/C(=C\c3ccc(OC(=O)/C=C\c4ccccc4)cc3)C2=O)cc1`, the TGI in test [1], in [3], in [4], in [5], in [6] and in test [7] was over 100 µM throughout. Moreover, the TGI in test [8], in test [9] and in test [10] was over 100 µM in each case.

`O=C(O)CCCc1ccc2c(c1)C(C(=O)O)CC2` (stereo not drawn): the TGI in test [1], in test [3], in [4], in test [5], in [6] and in test [7] was over 100 µM throughout. In addition, the TGI in test [8], in test [9] and in [10] was over 100 µM each time.

On to `Cn1c(CO)ccc1-c1ccc(-c2ccc(CO)[se]2)[se]1`, for which the TGI in [1] is 60 µM; in test [3], over 100 µM; in test [4] it was 12.1 µM; in test [5], over 100 µM; in test [6], over 100 µM; in test [7] it was over 100 µM. Also, the TGI in [8], in test [9] and in test [10] was over 100 µM in each case.

For `O=c1c2ccc(Cl)cc2oc2c(CSc3ccccc3)cccc12`, the TGI was over 100 µM in test [1]; over 100 µM in test [3]; 81.3 µM in test [4]; over 100 µM in [5]; over 86.5 µM in [6]; over 74.5 µM in [7]. The TGI in test [8] is over 100 µM; in [9] it was over 100 µM; in [10], over 38.4 µM.

For the molecule `O=C(OCCN=c1c2ccccc2ccc2ccccc12)c1cc([N+](=O)[O-])cc([N+](=O)[O-])c1`, the TGI in test [1], in [3], in [4], in test [5], in test [6] and in test [7] was over 100 µM each time. The TGI in test [8], in test [9] and in test [10] was over 100 µM each time.

`COC(=O)CCC(C)[C@H]1CCC2C3CC[C@@H]4CC5(CC[C@]4(C)C3C[C@H](OC(C)=O)[C@@]21C)OOC1(CCCCC1)OO5` (stereo partly drawn): the TGI in test [1] is over 100 µM; in test [3], over 100 µM; in test [4], 10.8 µM; in test [5] it was over 100 µM; in test [6], over 100 µM; in test [7], over 100 µM. In addition, the TGI in test [8] is 50 µM; in test [9] it was over 100 µM; in [10], 9.04 µM.

For `N#Cc1cc(F)cc(Oc2ccc(S(=O)(=O)C(F)F)c3c2CC(F)(F)[C@H]3O)c1`, the GI50 is 25.2 µM in test [1]; 23.9 µM in test [3]; 19.2 µM in test [4]; 24.9 µM in test [5]; 37.2 µM in test [6]; 12.6 µM in test [7]. Moreover, the GI50 is 16.3 µM in [8], 24.6 µM in test [9] and 15.1 µM in test [10]. The TGI in [1] was over 100 µM; in test [3] it was over 100 µM; in test [4], 96.4 µM; in test [5], 79.2 µM; in test [6], over 100 µM; in test [7] it was 67.3 µM. In addition, the TGI is over 100 µM in [8], 79.1 µM in [9] and 69.9 µM in test [10].

As for `C/C(CCN(C)C)=N/O`, the TGI in test [1] was 12.5 µM; in test [2], 29.6 µM; in test [4], 11.4 µM; in test [5], 81.5 µM; in test [6], over 100 µM; in test [7] it was 33 µM. The TGI in test [9] was found to be 33.2 µM; in test [10] it was 31.5 µM.

On to `CC(C)Oc1cccc(N2C(CCc3c[nH]c4ccc(Br)cc34)=NS(=O)(=O)c3cnccc32)c1`, for which the TGI in test [1], in [3], in test [4], in test [5], in test [6] and in test [7] was over 100 µM each time. Besides, the TGI in test [8], in test [9] and in test [10] was over 100 µM each time.

Take `Cc1ccc(S(=O)(=O)N/N=c2/sc3ccccc3n2C)cc1`: the TGI in test [1], in test [3], in test [4], in [5], in test [6] and in [7] was over 100 µM throughout. Besides, the TGI in [8], in test [9] and in test [10] was over 100 µM each time.
